Reference: patent publication US20240299377A1, “METHODS AND COMPOSITIONS FOR TREATING IRON DISORDERS” (BeyondSpring Pharmaceuticals, Inc., priority 2019, published 2024)

Test system: plasma haptoglobin levels
Experiment: Plasma haptoglobin levels in non-metastatic breast cancer patients receiving TAC plus plinabulin (hematology safety assessments)
Format: in vivo, human
Excerpt: Method. Non-metastatic Breast Cancer patients receiving TAC (taxotere, doxorubicin, cyclophosphamide) also received plinabulin at a dose of 10 (n=15), 20 (n=15) or 30 (n=12) mg/m^2. Hematology safety assessments were done at predose, and post-dose plinabulin at Day 2, 3, 6, 7, 8, 9, 10, 11, 12, 13 and 15, as predefined prospectively per protocol. Plinabulin was given on Day 1 as a single dose per 21-day cycle.

In the case of `CC(C)(C)c1[nH]cnc1/C=c1\[nH]c(=O)/c(=C/c2ccccc2)[nH]c1=O` [Plinabulin, (3Z,6Z)-3-Benzylidene-6-{[5-(2-methyl-2-propanyl)-1H-imidazol-4-yl]methylene}-2,5-piperazinedione], the “dose comparison for increasing plasma haptoglobin levels” value (30 mg/m^2 vs lower doses (10, 20 mg/m^2), p<0.01) is reported as “most effective dose”, the “mean (SD) increase of maximum haptoglobin levels from baseline” value (Plinabulin 30 mg/m^2 single dose on Day 1 of 21-day cycle with TAC, baseline mean (SD) 1.32 (0.453) g/L, p<0.0005) is reported as 1.61 (1.29) g/L and the “fold increase of maximum haptoglobin levels” value (Plinabulin 30 mg/m^2 single dose, versus baseline) is reported as “more than 2 fold”. For the same compound, the “duration of haptoglobin increase” value (single dose 30 mg/m^2, FIG. 1) was > 3 weeks and the “time to haptoglobin (Hp) increase after plinabulin dosing” value (single dose 30 mg/m^2, P<0.03) was ≤ 2 days.
